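Exposure lasted 48 hours, with cells grown in 96-well plates and compounds tested at five concentrations. Here, GI50 denotes the concentration required for 50% inhibition of growth. Definition used: TGI = concentration required for complete inhibition of growth.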
Assays:
Experiment in all cases: NCI tumour cell line growth inhibition, 48 h
[1] = system: 786-0 renal
[2] = system: A498 renal
[3] = system: A549 NSCLC
[4] = system: ACHN renal
[5] = system: CAKI-1 renal
[6] = system: CCRF-CEM leukemia
[7] = system: COLO 205 colon
[8] = system: DLD-1 colon
[9] = system: DMS 114 small cell lung
[10] = system: DMS 273 small cell lung
[11] = system: EKVX NSCLC
[12] = system: HCC-2998 colon
[13] = system: HCT-116 colon
[14] = system: HCT-15 colon
[15] = system: HL-60(TB) leukemia
[16] = system: HOP-18 NSCLC
[17] = system: HOP-62 NSCLC
[18] = system: HOP-92 NSCLC
[19] = system: HT29 colon
[20] = system: IGROV1 ovarian
[21] = system: K-562 leukemia
[22] = system: KM12 colon
[23] = system: KM20L2 colon
[24] = system: LOX IMVI melanoma
[25] = system: LXFL 529 NSCLC
[26] = system: M14 melanoma
[27] = system: M19-MEL melanoma
[28] = system: MALME-3M melanoma
[29] = system: MOLT-4 leukemia
[30] = system: NCI-H226 lung
[31] = system: NCI-H23 lung
[32] = system: NCI-H460 lung
[33] = system: OVCAR-3 ovarian
[34] = system: OVCAR-4 ovarian
[35] = system: OVCAR-5 ovarian
[36] = system: OVCAR-8 ovarian
[37] = system: RPMI-8226 leukemia
[38] = system: SF-268 CNS
[39] = system: SF-295 CNS
[40] = system: SF-539 CNS
[41] = system: SK-MEL-2 melanoma
[42] = system: SK-MEL-28 melanoma
[43] = system: SK-MEL-5 melanoma
[44] = system: SK-OV-3 ovarian
[45] = system: SN12C renal
[46] = system: SNB-19 CNS
[47] = system: SNB-75 CNS
[48] = system: SNB-78 CNS
[49] = system: SR leukemia
[50] = system: SW-620 colon
[51] = system: TK-10 renal
[52] = system: U251 CNS
[53] = system: UACC-257 melanoma
[54] = system: UACC-62 melanoma
[55] = system: UO-31 renal
[56] = system: XF 498 CNS

SMILES: COc1cccc(/C=N/[N-]C(=O)c2ccncc2)c1[O-].[Cu+2].[OH3+]
- GI50 [1]: 63.4 µM
- TGI [1]: > 100 µM
- GI50 [2]: 58.4 µM
- TGI [2]: > 100 µM
- GI50 [3]: 53.7 µM
- TGI [3]: > 100 µM
- GI50 [4]: 90.8 µM
- TGI [4]: > 100 µM
- GI50 [5]: > 100 µM
- TGI [5]: > 100 µM
- GI50 [6]: 27.9 µM
- TGI [6]: > 100 µM
- GI50 [7]: 78.4 µM
- TGI [7]: > 100 µM
- GI50 [8]: 52.6 µM
- TGI [8]: > 100 µM
- GI50 [9]: 71.1 µM
- TGI [9]: > 100 µM
- GI50 [10]: 48.2 µM
- TGI [10]: > 100 µM
- GI50 [11]: 58 µM
- TGI [11]: > 100 µM
- GI50 [12]: > 100 µM
- TGI [12]: > 100 µM
- GI50 [13]: 23.8 µM
- TGI [13]: 93.9 µM
- GI50 [14]: 62.8 µM
- TGI [14]: > 100 µM
- GI50 [15]: 23 µM
- TGI [15]: 53.7 µM
- GI50 [16]: > 100 µM
- TGI [16]: > 100 µM
- GI50 [17]: 15.7 µM
- TGI [17]: 86.4 µM
- GI50 [18]: > 100 µM
- TGI [18]: > 100 µM
- GI50 [19]: 43.8 µM
- TGI [19]: > 100 µM
- GI50 [20]: 38.7 µM
- TGI [20]: > 100 µM
- GI50 [21]: 33.6 µM
- TGI [21]: > 100 µM
- GI50 [22]: > 100 µM
- TGI [22]: > 100 µM
- GI50 [23]: 47.9 µM
- TGI [23]: > 100 µM
- GI50 [24]: > 100 µM
- TGI [24]: > 100 µM
- GI50 [25]: 57.7 µM
- TGI [25]: > 100 µM
- GI50 [26]: 61.3 µM
- TGI [26]: > 100 µM
- GI50 [27]: > 100 µM
- TGI [27]: > 100 µM
- GI50 [28]: > 100 µM
- TGI [28]: > 100 µM
- GI50 [29]: 35.2 µM
- TGI [29]: > 100 µM
- GI50 [30]: > 100 µM
- TGI [30]: > 100 µM
- GI50 [31]: 34.1 µM
- TGI [31]: > 100 µM
- GI50 [32]: 28.7 µM
- TGI [32]: > 100 µM
- GI50 [33]: 33.7 µM
- TGI [33]: > 100 µM
- GI50 [34]: 78.6 µM
- TGI [34]: > 100 µM
- GI50 [35]: > 100 µM
- TGI [35]: > 100 µM
- GI50 [36]: 22 µM
- TGI [36]: > 100 µM
- GI50 [37]: > 100 µM
- TGI [37]: > 100 µM
- GI50 [38]: 28 µM
- TGI [38]: > 100 µM
- GI50 [39]: > 100 µM
- TGI [39]: > 100 µM
- GI50 [40]: 18.2 µM
- TGI [40]: 76.8 µM
- GI50 [41]: > 100 µM
- TGI [41]: > 100 µM
- GI50 [42]: > 100 µM
- TGI [42]: > 100 µM
- GI50 [43]: 74.3 µM
- TGI [43]: > 100 µM
- GI50 [44]: 15.1 µM
- TGI [44]: 82 µM
- GI50 [45]: 49.7 µM
- TGI [45]: > 100 µM
- GI50 [46]: > 100 µM
- TGI [46]: > 100 µM
- GI50 [47]: 28.6 µM
- TGI [47]: > 100 µM
- GI50 [48]: > 100 µM
- TGI [48]: > 100 µM
- GI50 [49]: 26.9 µM
- TGI [49]: 92 µM
- GI50 [50]: 48.2 µM
- TGI [50]: > 100 µM
- GI50 [51]: > 100 µM
- TGI [51]: > 100 µM
- GI50 [52]: 20.5 µM
- TGI [52]: > 100 µM
- GI50 [53]: > 100 µM
- TGI [53]: > 100 µM
- GI50 [54]: 28.9 µM
- TGI [54]: > 100 µM
- GI50 [55]: 45.5 µM
- TGI [55]: > 100 µM
- GI50 [56]: > 100 µM
- TGI [56]: > 100 µM

Source: PubChem BioAssay (NCI)
